The results in this text go back to patent US8895717B2, “Delivery of siRNA by neutral lipid compositions” (The Board of Regents of the University of Texas System, priority 2005, dated 2014).

d = 2'-deoxy (DNA); r = 2'-OH (RNA) Some results are limits rather than exact numbers.

One data set has as its system SKOV3 cells. The data set can be described thus: Cytotoxicity assay (MTT), SKOV3. Format: cell-based, human. Here is the method: The medium was exchanged after 48 hours with increasing concentrations of docetaxel (obtained from Aventis Pharma, Bridgewater, N.J.) dissolved in ethanol (final concentration range, 0.1-10,000 nmol/L prepared in medium) or cisplatin (purchased from LKT Laboratories, Inc., St. Paul, Minn.) dissolved in water. After a 96-hour incubation, 50 μL of 0.15% 3-(4,5-dimethylthiazol-2-yl)-2,5-diphenyltetrazolium bromide was added to each well and incubated for 2 hours. The supernatant was removed, and cells were dissolved in 100 μL DMSO. The absorbance at 570 nm was recorded using a FALCON microplate reader (Becton Dickinson Labware, Bedford, Mass.), and cell survival expressed as a percent increase or decrease above control conditions, after subtracting blank A570 readings. The IC50 concentration was determined by finding the A570 reading midpoint between maximal and minimal readings and finding the chemotherapy concentration that intersects the growth curve at that A570 reading.

Another data set concerns FAK. Briefly: FAK down-regulation by siRNA in vitro, Western blot. Conditions: for suppression of FAK expression: SKOV3, 72 hours of transfection. Format: cell-based, human. Here is the method:
siRNAs were synthesized and then purified using high-performance liquid chromatgraphy (Qiagen-Xeragon, Germantown, Md.). FAK siRNA sense: r(CCACCUGGGCCAGUAUUAU)d(TT) (SEQ ID NO:7); antisense: r(AUAAUACUGGCCCAGGUGG)d(TT) (SEQ ID NO:8) and control siRNA sense: r(UUUUCCGAACGUGUCACGU)dTT; (SEQ ID NO:9) antisense: r(ACGUGACACGUUCGGAGAA)dTT (SEQ ID NO:10) bearing no sequence homology with any known human mRNA sequences were dissolved in buffer (100 mmol/L potassium acetate, 30 mmol/L HEPES potassium hydroxide, 2 mmol/L magnesium acetate, pH 7.4) to a final concentration of […], heated to 90° C. for 60 seconds, incubated at 37° C. for 60 minutes, and stored at −20° C. until future use.
Cells were lysed in modified RIPA buffer (50 mM Tris, 150 mM NaCl, 1% triton, 0.5% deoxycholate plus 25 µg/ml leupeptin, 10 µg/ml aprotinin, 2 mM EDTA, and 1 mM sodium orthovanadate (Sigma Chemical Co, St. Louis, Mo.) as previously described (Sood et al., 2004; Sood et al., 2002). A sample was removed from culture dishes by cell scraping and centrifuged at 12,500 rpm for 30 min. The […] protein concentration of the supernatant was determined using a bicinchoninic acid protein assay reagent kit (Pierce, Rockford, Ill.), and whole cell lysates were analyzed by 7.5% SDS-PAGE. Samples were then transferred to nitrocellulose membrane by semi-dry transfer (BioRad Laboratories, Hercules, Calif.). Membranes were blocked with 5% nonfat milk, and incubated with 0.25 μg/mL anti-FAK antibody (Biosource, International Camarillo, Calif.) for 1 h at room temperature. Antibody was detected with 0.167 μg/mL HRP-conjugated anti-mouse secondary antibody (The Jackson Laboratory, Bar Harbor, Me.) and developed with an enhanced chemiluminescence detection kit (Pierce). Equal loading was confirmed by detection of β-actin (0.1 μg/ml, anti-β-actin antibody, Sigma Chemical). Densitometric analysis was performed using the Scion Imaging software (Scion Corporation, Frederick, Md.).
Next, the inventors sought to examine whether FAK silencing using siRNA will sensitize ovarian cancer cells to docetaxel.
In general terms: A western blot detects proteins with antibodies after separation by electrophoresis.

Another data set has as its system HeyA8 orthotopic model. The data set can be described thus: Angiogenesis (MVD), proliferation (PCNA), apoptosis (TUNEL), VEGF and MMP-9 in harvested tumors. It counts as in vivo, nude mice. As to conditions: for endothelial cell apoptosis: CD31 and TUNEL dual localization. The protocol:
Expression of PCNA was determined by IHC analysis using paraffin-embedded tumors. Sections (8-μm thick) were deparaffinized in xylene, treated with a graded series of alcohol [100%, 95%, 80% ethanol/double distilled H2O (v/v)], and rehydrated in PBS (pH 7.5). Antigen retrieval was performed by microwave heating for 5 minutes in 0.1 M citrate buffer pH 6.0, followed by blocking of endogenous […] with 3% H2O2 in methanol for 5 min. After PBS wash ×2, slides were blocked with 5% normal horse serum and 1% normal goat serum in PBS for 15 min at room temperature, followed by incubation with primary antibody (anti-PCNA, PC-10, mouse IgG, Dako), in blocking solution overnight at 4° C. After two PBS washes, the appropriate secondary antibody conjugated to horseradish peroxidase, in blocking solution, was added for 1 hour at room temperature. HRP was detected with DAB (Phoenix Biotechnologies, Huntsville, Ala.) substrate for 5 minutes, washed, and counterstained with Gil No. 3 hematoxylin (Sigma) for 20 sec. IHC for CD31 was performed on freshly cut frozen tissue. […] The primary antibody used was anti-CD31 (PECAM-1, rat IgG, Pharmingen). Staining for PCNA and CD31 was conducted on tumors collected at the conclusion of 4 week therapy trials.
To quantify MVD, 10 random 0.159-mm^2 fields at ×100 final magnification were examined for each tumor (1 slide per mouse, 5 slides per group), and the number of microvessels per field were counted. A single microvessel was defined as a discrete cluster or single cell stained positive for CD31 (CD31), and the presence of a lumen was required for scoring as a microvessel. To quantify PCNA expression, the number of positive cells (DAB staining) was counted in 10 random 0.159-mm^2 fields at ×100 magnification. To quantify TUNEL positive cells, the number of green fluorescence positive cells was counted in 10 random 0.01-mm^2 fields at ×400 magnification.
Expression of PCNA was determined by IHC analysis using paraffin-embedded tumors. Sections (8-μm thick) were mounted on positively charged Superfrost slides (Fisher Scientific Co., Houston, Tex.) and dried overnight. Sections were deparaffinized in xylene, treated with a graded series of alcohol [100%, 95%, 80% ethanol/double distilled H2O (v/v)], and rehydrated in PBS (pH 7.5). Antigen was retrieved by placing the slides in water and then boiling them in a microwave on high power for 5 min. Expression of CD31 was determined using fresh frozen tissues that were cut into 4-μm thick sections and mounted on positively charged slides. The slides were stored at −80° C.; sections were fixed in cold acetone for 10 min. and then washed twice with PBS for 3 min each time. A positive reaction was visualized by incubating the slides with stable 3,3 diaminobenzidine for 10-20 min. The sections were rinsed with distilled water, counterstained with Gill's hematoxylin for 1 min and mounted with Universal mount (Research Genetics).
To determine potential mechanisms underlying the efficacy of anti-FAK based therapy, its effects on several biological endpoints were examined, including angiogenesis (MVD), proliferation (PCNA), and apoptosis (TUNEL). Due to growing evidence related to FAK and tumor angiogenesis (Kornberg et al., 2004; Mitra et al., 2005). The inventors evaluated vessel density (FIG. 14B) in the tumors harvested from the studies described above. […]

Turning to “control siRNA: sense r(UUUUCCGAACGUGUCACGU)dTT, antisense r(ACGUGACACGUUCGGAGAA)dTT, no homology with human mRNA; in vivo in DOPC (sense UUUUCCGAACGUGUCACGUTT; antisense ACGUGACACGUUCGGAGAATT; sugars from the 5' end r19 d2, backbone not given here)”, the “effect on sensitivity to docetaxel” value in the data set with SKOV3 cells (all ovarian cancer cell lines tested) is on record as “did not affect sensitivity of ovarian cancer cells to docetaxel”. Besides, the “FAK expression compared with untreated cells” value with FAK (SKOV3) is reported as “did not significantly affect FAK expression”. Besides, in the data set on HeyA8 orthotopic model, the endothelial cell apoptosis entry is on record as “no apotosis seen in endothelial cells”.

For “FAK siRNA: sense r(CCACCUGGGCCAGUAUUAU)d(TT), antisense r(AUAAUACUGGCCCAGGUGG)d(TT); for in vivo delivery incorporated into DOPC (sense CCACCUGGGCCAGUAUUAUTT; antisense AUAAUACUGGCCCAGGUGGTT; sugars from the 5' end r19 d2, backbone not given here)”, the “fold greater docetaxel cytotoxicity after FAK down-regulation” value with SKOV3 cells (SKOV3, siRNA 48 hours before docetaxel, at 50% cytotoxicity) was around 5 fold. The figures for the “suppression of FAK expression” value in the data set with FAK and in the data set on FAK (listed as FAK-specific siRNA) were 90% and above 90%, respectively. Also, the FAK expression entry in the data set with FAK (after 24 hours of treatment) was “detectable decrease in FAK expression”. Moreover, the endothelial cell apoptosis result in the data set on HeyA8 orthotopic model is “significantly increased”. For the same substance, the “mean MVD compared with empty liposomes” value in the data set with HeyA8 orthotopic model (CD31 staining) was “mean MVD was reduced”. In the data set on HeyA8 orthotopic model (IHC), the “VEGF and MMP-9 expression” value is “substantially reduced”. For the same substance, the “PCNA expression compared to empty liposome or control siRNA” value in the data set with HeyA8 orthotopic model (mouse, in vivo) was “Minimal reduction of PCNA expression”.
